Measurements reported in publication PMC3677654, “Soy Glycinin Contains a Functional Inhibitory Sequence against Muscle-Atrophy-Associated Ubiquitin Ligase Cbl-b” (International Journal of Endocrinology, 2013).
Entries after “also recorded” stand apart in the source; their conditions may differ.

Legend:
[1] = test system: Cbl-b-mediated ubiquitination of IRS-1; assay: Cbl-b-mediated IRS-1 ubiquitination in transfected HEK293 cells; type: cell-based, human Cbl-b, rat IRS-1; settings: 120 μM, 10 ng/mL IGF-1 for 1 h, 100 nM epoxomicin, immunoblot
Description: HEK293 cells were maintained in Dulbecco's modified Eagle medium (DMEM) containing 10% fetal bovine serum, 100 U/mL penicillin, and 100 μg/mL streptomycin at 37°C under 5% CO2-[…] gas mixture.
(§1) HEK293 cells (40–60% of confluence) were transfected with plasmid vectors, using Hily Max lipofection reagent (DOJINDO, Kumamoto, Japan), as described previously. The expression plasmids used in this study were pCEFL-human Cbl-b-HA, pcDNA3.1-rat IRS-1-V5, and pcDNA3-FLAG-Ubiquitin.
(§2) Immunoblot and immunoprecipitation analyses were performed as described previously. The following antibodies were used: anti-actin (Calbiochem, La Jolla, CA, USA), anti-HA.11 (BabCo, Richmond, CA, USA), anti-V5 (Invitrogen, Carlsbad, CA, USA), anti-FLAG M2 (Sigma, St. Louis, MO, USA), anti-IRS-1 (Upstate Biotechnology, Lake Placid, NY, USA), anti-Akt-1 (PharMingen International, Tokyo), and anti-phospho-S^473-Akt-1 (Cell Signaling Technology, Beverly, MA, USA).
We used the following pentapeptides or hexapeptides derived from soy: soy-glycinin-derived peptide, soy-β-conglycinin-derived peptide, lipoprotein- (LP-) derived peptide, and soy protein isolate (SPI). These peptides were kindly provided by Fuji Oil Co. (Osaka, Japan). […] A patent application was lodged for the sequence of this peptide (Pat. no. 5113346). […] These peptides were kindly provided by Otsuka Pharmaceutical Co. (Tokushima, Japan). […]

[2] = test system: interaction between Cbl-b and IRS-1; assay: Interaction between Cbl-b and IRS-1 in HEK293 cells (co-immunoprecipitation); type: cell-based, human Cbl-b, rat IRS-1; settings: 120 μM, anti-IRS-1 immunoprecipitates
Description: as §1, §2
Figure 3 Inhibitory effect of Cblin-like synthetic peptide on Cbl-b-mediated degradation and ubiquitination of IRS-1. HEK293 cells were transfected with mock vector/pCEFL-Cbl-b-HA, pcDNA3.1-rat IRS-1-V5, and pcDNA3-FLAG-Ubiquitin and then treated with 100 nM epoxomicin at 2 hours before treatment with each peptide at the indicated concentrations. One hour later, these cells were treated with 10 ng/mL IGF-1 for 1 hour. Immunoprecipitates (IP) from whole cell lysates incubated with an anti-IRS-1 antibody were subjected to immunoblot (IB) analysis for the indicated proteins. […]

[3] = test system: Cbl-b-mediated ubiquitination of IRS-1; settings: ref [4], cited from earlier work; for Inhibitory activity on Cbl-b-mediated IRS-1 ubiquitination: in words
Text: These peptides were kindly provided by Fuji Oil Co. (Osaka, Japan). […] A patent application was lodged for the sequence of this peptide (Pat. no. 5113346).

[4] = test system: denervated skeletal muscle of mice; settings: ref [4], cited from earlier work
Text: Therefore, we hypothesized that foodstuffs that contain Cblin-like amino acid sequence can be used to prevent unloading-induced muscle atrophy.

Row | Substance | Inhibition of IRS-1 ubiquitination [1] | Inhibition of interaction between Cbl-b and IRS-1 [2] | IC50 ([3]; approximate) [µM] | Inhibitory activity on Cbl-b-mediated IRS-1 ubiquitination [3] | Prevention of denervation-induced muscle atrophy ([4]; mice) | Expression of MAFbx/atrogin-1 [4]
1 | DGpYMP [Cblin] | inhibited IRS-1 ubiquitination | inhibited IRS-1 ubiquitination and interaction between Cbl-b and IRS-1 | ~120 | exhibited inhibitory activity on Cbl-b-mediated IRS-1 ubiquitination; also recorded: inhibited Cbl-b-mediated ubiquitination and degradation of IRS-1 both in vitro and in vivo | inhibited Cbl-b-mediated degradation of IRS-1, resulting in suppression of denervation-mediated muscle atrophy; also recorded: prevented denervation-induced muscle atrophy in mice | inhibited Cbl-b-mediated IRS-1 ubiquitination and expression of MAFbx/atrogin-1
2 | VGpYLR | – | – | – | no inhibitory activity against Cbl-b-mediated IRS-1 ubiquitination | – | –
